Legend:
human Fab of κ-type = human Fab of κ-type (Homo sapiens, UniProt P01834+P01857); experiment: STD NMR screening (1D saturation transfer difference) for binding to antibody; design: key: 0 no; 1 weak; 2 strong signal; conditions: 0.5 mM ligand
Experimental: All NMR experiments were performed at 298 K on a Bruker Avance 500 MHz spectrometer. The 1D saturation transfer difference method (STD NMR) was used as screening assay (Mayer M. and Meyer B. 1999. Characterization of Ligand Binding by Saturation Transfer Difference NMR Spectroscopy. Angew. Chem., Int. Ed. 38: 1784-1788) using several antibody concentrations in order to differentiate between compounds with different binding strength (Peng J. W., Lepre C. A., Fejzo J., Abdul-Manan N. and Moore J. M. 2001. Nuclear Magnetic Resonance-Based Approaches for Lead Generation in Drug Discovery. Methods in Enzymology. 338: 202-230). The antibody used was a human Fab of κ-type. In all cases ligands were tested one-by-one. On-resonance irradiation was set at 0 ppm and off-resonance irradiation was set at −40 ppm. Irradiation time in each scan was 2 s and 16 K data points were collected with 1024 scans in total. Compounds for testing were dissolved in DMSOd6 to a concentration of 50 mM and 5 μL of the concentrated ligand solution was added to 495 μL buffer solution. The samples thus consisted of 0.5 mM ligand, 20 mM phosphate buffer, 100 mM NaCl and […] in D2O at pD 7.5, uncorrected reading on pH-meter.
Compounds were initially tested for binding with 0.5 μM antibody. Interesting ligands were further tested with protein concentrations of 100 or 20 nM. A one-dimensional ^1H-spectrum was acquired first and subsequently a saturation transfer difference (STD) spectrum was acquired. Each analysis took 60 minutes on the spectrometer. […] The analysis was setup for automation so that several samples could be analysed over night (usually 10-15 samples/night).
As many as 46 of the virtual screening hits were tested with NMR according to the procedure described above. The results from NMR screening together with additional compound data are compiled in Table 1 below. In total 24 compounds gave a positive result in the first round with the highest antibody concentration (500 nM). These 24 compounds were subjected to a second round with an antibody concentration of 100 nM. The 4 compounds showing the strongest signal in the second round were tested for binding in a third round with 20 nM antibody. Three of the compounds in the third round gave a positive result and where thus designated as the strongest binders to the antibody out of the 46 tested compounds.

[1] = tested on: F(ab′)2 fragment of a different specificity (kappa); experiment: STD NMR control with F(ab′)2 fragment of a different specificity; assay type: binding; conditions: 1 μM protein; different variable part from Example 2
Experimental: The present example was performed with a F(ab′)2 fragment of a different specificity, i.e. a different variable part, from the one used in Example 2 above in order to verify that binding of one the selected compounds still occurred.
The testing was performed as described above in Example 2, but this time using 1 μM protein and using compound AB—0000860 as defined above in table 1. The results were positive, which implies that there is an interaction between AB—0000860 and at least two kappa Fab fragments of different specificities.

[2] = tested on: Fab fragment of lambda-type; experiment: STD NMR control with Fab fragment of lambda-type; assay type: binding; conditions: tested as in Example 2 with lambda-type Fab
Experimental: Apart from the different Fab fragment, the testing was performed as described above in Example 2.

Sequence of human Fab of κ-type (P01857 with tags, fused parts or gaps, other chains not shown): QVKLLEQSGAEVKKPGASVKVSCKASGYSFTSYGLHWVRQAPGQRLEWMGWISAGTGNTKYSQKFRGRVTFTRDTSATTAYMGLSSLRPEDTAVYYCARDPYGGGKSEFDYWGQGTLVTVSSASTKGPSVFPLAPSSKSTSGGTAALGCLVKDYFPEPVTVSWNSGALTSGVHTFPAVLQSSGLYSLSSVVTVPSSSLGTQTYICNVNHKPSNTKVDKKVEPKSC

NMR signal conc 3 (human Fab of κ-type; 20 nM antibody): 1
NMR signal conc 2 (human Fab of κ-type; 100 nM antibody): 2
NMR signal conc 1 (human Fab of κ-type; 500 nM antibody, 298 K): 2
binding to F(ab′)2 fragment (STD NMR result) [1]: positive
binding to lambda-type Fab (STD NMR result) [2]: negative
SMILES: O=C1CN(c2ccccc2)C(=O)N1c1ccccc1 [AB_0000860, 1,3-diphenylimidazolidine-2,4-dione]

Source: patent US20090138208A1, “IMMUNOGLOBULIN G BINDING POCKET” (GE HEALTHCARE BIO-SCIENCES AB, priority 2002, published 2009)
